How the values were obtained:
[1] = system: HIV-1; assay: HIV-1 latent infection of resting CD4 T cells, viral replication assay (p24 ELISA) after anti-CD3/CD28 activation; type: cell-based, HIV-1NL4-3; conditions: for inhibition of HIV replication in resting T cells: 2 hours before infection
Procedure: Virus stocks of the HIV-1NL4-3 (Adachi et al. J Virol 59(2), 284-91 (1986)) were prepared by transfection of HeLa cells with cloned proviral DNA as described in Wu and Marsh (2001). Supernatant was harvested at 48 hours, and filtered through a 0.45 μm nitrocellulose membrane. Virus titer (TCID50) was measured by infection of a Rev-CEM indicator cell line which was constructed through stable integration of a Rev-dependent GFP expression lentiviral vector into CEM-SS. […] For infection of resting CD4 T cells, viruses were first titrated to determine minimal levels detectable by p24 ELISA in replication assays described below. Unless specified, for most replication assays, 10^3.5 to 10^4.5 TCID50 units of HIV-1 were used to infect 10^6 cells. For infection procedure, CD4 T cells were incubated with the virus for 2 hours, then washed twice with medium to remove unbound virus. Infected cells were resuspended into fresh RPMI 1604 medium supplemented with 10% heat-inactivated fetal bovine serum, penicillin (50 U/ml) and streptomycin (50 μg/ml) at a density of 10^6 per ml and incubated for 5 days without stimulation. Cells were activated at day 5 with anti-CD3/CD28 magnetic beads at 4 beads per cells. For viral replication assay, 10% of infected cells were taken at 1, 3, 5, 6, 7, 8, 9 days post infection. Cells were pelleted and the supernatant was saved for p24 ELISA. Levels of p24 in the supernatant were measured by using Coulter HIV-1 p24 Assay Kit (Beckman Coulter, Inc. Miami, Fla.). Plates were kinetically read using ELx808 automatic microplate reader (Bio-Tek Instruments, Inc. Winooski, Vt.) at 630 nm.
Resting CD4 T cells were treated with pertussis toxin (Sigma, St. Louis, Mo.) at a final concentration of 100 ng/ml for 2 hours, then infected with HIV-1. Following infection, cells were washed 2 to 3 times to remove cell-free virus and the inhibitor. Cells were treated with Jasplakinolide (Molecular Probes, Eugene, Oreg.) for 1 to 2 hours or Latrunculin A (Biomol, Plymouth Meeting, Pa.) for 5 minutes at various concentrations, washed twice with medium, then infected with HIV-1. Following infection, cells were washed twice to remove cell free virus. Cells were treated with 200 nM of Staurosporine (Biomol, Plymouth Meeting, Pa.) for 2 hours, then infected with HIV-1. Following infection, cells were washed twice to remove cell-free virus and the inhibitor.
Resting CD4 T cells were treated with S3 or Q104 for I to 2 hours, then infected with HIV-1. Following infection, cells were washed 2 to 3 times to remove cell-free virus and the peptides.
Effects of Jas on LFA-1 activation also were tested. Jas treated or untreated resting T cells were activated by anti-CD3/CD28 bead and stained with human ICAM-1/Fc chimera and analyzed by flow cytometer. The effects of Jas on IL-2 secretion also were measured. […] Cells were treated with Jas for 2 hours, washed, infected with HIV-1 for 5 days, then activated by anti-CD3/CD28 bead. […] Following infection, cellular DNA was PCR amplified for viral late DNA and β-actin pseudogene. Cells were pre-activated with PHA plus IL-2, then treated and infected as in FIG. 3A. […] CEM-SS cell were treated and infected as in FIG. 3A.

[2] = system: HIV-1; assay: HIV-1 infection of transformed CEM-SS cells; type: cell-based, HIV-1NL4-3
Procedure: (§1) Thus, the effect of Jas on T cell activity was determined. FIG. 3A illustrates inhibition of HIV-1 latent infection by Jas. Effects of Jas on LFA-1 activation also were tested. Jas treated or untreated resting T cells were activated by anti-CD3/CD28 bead and stained with human ICAM-1/Fc chimera and analyzed by flow cytometer. The effects of Jas on IL-2 secretion also were measured. […] Cells were treated with Jas for 2 hours, washed, infected with HIV-1 for 5 days, then activated by anti-CD3/CD28 bead. […] Following infection, cellular DNA was PCR amplified for viral late DNA and β-actin pseudogene. Cells were pre-activated with PHA plus IL-2, then treated and infected as in FIG. 3A. […] CEM-SS cell were treated and infected as in FIG. 3A. Effects of Jas on HIV-1 infection of resting T cells pre-stimulated with anti-CD4/CXCR4 bead (2 beads/cell) are shown in FIG. 3E. Pre-stimulated cells were treated and infected as in FIG. 3A.

[3] = system: HIV-1; assay: PCR amplification of intracellular viral late DNA (viral entry); type: cell-based, HIV-1NL4-3; conditions: 120 nM
Procedure: To remove plasmid DNA contamination, viral stock was treated with Benzonase (Novagen, Madison, WI) (250 U/ml) at […] for 15 min before infection. Total cellular DNA were purified using SV total RNA isolation kit as recommended by the manufacture (Promega, Madison, WI). For detection of viral late reverse transcription products by PCR, forward primer HIV/Tat-Rev-5’(5′[…] 3′; SEQ ID NO: 6) and reverse primer LTR-gag2 (5′[…] 3′; SEQ ID NO: 7) were used. PCR was carried out in 1× Ambion PCR buffer, 125 μM dNTP, 50 pmol each primer, 1U SuperTaq Plus (Ambion Inc. Austin, TX) with 30 cycles at 94° C. for 20 seconds, 68° C. for 60 seconds. For relative quantification, the cellular-actin pseudogene were co-amplified using QuantumRNA-actin Internal Standards (Ambion Inc. Austin, TX), with a ratio from 5/5 to 1/9 for actin primer/competitor.
Thus, the effect of Jas on T cell activity was determined. FIG. 3A illustrates inhibition of HIV-1 latent infection by Jas. Effects of Jas on LFA-1 activation also were tested. Jas treated or untreated resting T cells were activated by anti-CD3/CD28 bead and stained with human ICAM-1/Fc chimera and analyzed by flow cytometer. The effects of Jas on IL-2 secretion also were measured. […] Cells were treated with Jas for 2 hours, washed, infected with HIV-1 for 5 days, then activated by anti-CD3/CD28 bead. […]

[4] = system: CD4/CXCR4 distribution; assay: Confocal microscopy of CD4 and CXCR4 distribution on resting CD4 T cells; type: cell-based, human; conditions: 120 nM, 2 hours
From the text: Stained cells were imaged using a Zeiss Laser Scanning Microscope (Thornwood, N.Y.), LSM 510 META, with a 40 NA 1.3 or 60 NA 1.4 oil Dic Plan-Neofluar objective. Samples were excited with two laser lines, 488 nm for GFP and 543 nm for Alexa 594. Images were simultaneously recorded in three channels: channel one: fluorescent emissions from 505 to 530 nm for GFP (green); channel two: emissions from 580 to 650 nm for Alexa 594 (red); channel three: DIC. Images were processed and analyzed by the LSM 510 META software.
FIG. 8 illustrates confocal microscopy of CD4 and CXCR4 distribution on resting CD4 T cells treated with 120 nM Jas. Resting CD4 T cells were treated with 120 nM of Jas for 2 hours, then fixed and stained with a FITC-labeled anti-human CD4 monoclonal antibody and a biotin-labeled anti-human CXCR4 monoclonal antibody followed by Alexa Fluor-594 labeled streptavidin (right panel). Untreated resting CD4 T cells were used as a control (left panel).

[5] = system: T cells; assay: Cell cycle analysis of T cells; type: cell-based, human
[6] = system: HIV-1; assay: HIV-1 infection of T cells pre-activated with PHA plus IL-2; type: cell-based, HIV-1NL4-3; conditions: similar Jas treatment (120 nM)
Procedure: as §1

C/C1=C\[C@H](C)C[C@H](C)OC(=O)C[C@H](c2ccc(O)cc2)NC(=O)[C@@H](Cc2c(Br)[nH]c3ccccc23)N(C)C(=O)[C@H](C)NC(=O)[C@@H](C)C1 [Jas, Jasplakinolide]
inhibition of HIV replication in resting T cells ([1]; 24 nM): partial inhibition | inhibition of HIV replication in resting T cells ([1]; 120 nM): Complete inhibition | inhibition of HIV replication in resting T cells pre-stimulated with CD4/CXCR4 bead ([1]; 120 nM, pre-stimulation 2 beads/cell): completely abolished the inhibition | inhibition of HIV replication in resting T cells ([1]; 600 nM): Complete inhibition | inhibition of HIV replication in GEM-SS ([2]; 3μM): did inhibit HIV replication | inhibition of HIV replication in transformed CEM-SS ([2]; similar Jas treatment (120 nM)): no inhibition | intracellular viral DNA, treated vs untreated cells [3]: did not detect any difference | CD4/CXCR4 distribution on the surface, treated vs untreated cells [4]: did not reveal any significant difference | cell cycle arrest ([5]; 120 nM): no cell cycle arrest | cell cycle arrest ([5]; 3μM): arrested cells in S phase | inhibition of HIV replication in pre-activated T cells [6]: no inhibition
